Biological target: T1, ferroportin (Fpn) (Homo sapiens, UniProt Q9NP59)
T1 construct: expressed in transfected cells; host or cells: HEK-293 cell line #354 (derivative of HEK-293 Tet-ON Advanced)
T1 sequence (Q9NP59 1-571): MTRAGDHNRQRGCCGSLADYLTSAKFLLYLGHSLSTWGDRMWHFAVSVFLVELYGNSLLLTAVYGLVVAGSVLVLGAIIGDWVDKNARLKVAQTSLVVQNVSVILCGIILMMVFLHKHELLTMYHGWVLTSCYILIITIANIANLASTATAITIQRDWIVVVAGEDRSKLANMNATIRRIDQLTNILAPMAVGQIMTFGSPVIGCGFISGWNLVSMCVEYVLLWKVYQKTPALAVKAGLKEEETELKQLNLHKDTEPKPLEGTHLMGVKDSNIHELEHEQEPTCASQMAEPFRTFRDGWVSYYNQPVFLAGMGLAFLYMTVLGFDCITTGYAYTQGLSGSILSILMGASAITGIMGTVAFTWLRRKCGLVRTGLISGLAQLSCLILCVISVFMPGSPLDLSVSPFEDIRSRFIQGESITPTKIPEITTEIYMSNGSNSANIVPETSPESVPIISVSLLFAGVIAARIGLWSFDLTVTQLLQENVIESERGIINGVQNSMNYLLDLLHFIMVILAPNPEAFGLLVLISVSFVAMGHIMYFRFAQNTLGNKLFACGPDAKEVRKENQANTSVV
Assay: Inhibition of ferroportin mediated iron export activity in an iron response assay (BLA reporter, HEK-293 cell line #354)
Type: cell-based
Conditions: for IC50: HEK-293 cell line #354, BLA reporter, tested as 3HCl-salts, n=3, read-out: Iron response (HEK354 Blazer) IC50; for EC50: average of multiple measurements, iron response assay, 3HCl-salts, read-out: BLAzer EC50
Text: Intracellular iron levels are indirectly measured in this assay by monitoring the activity of a beta-lactamase (BLA) reporter gene fused to the human ferritin promoter and the associated iron regulatory element (IRE) contained within the 5′ untranslated region of the ferritin mRNA. Expression of ferroportin (Fpn) in such a cell line leads to iron efflux and lower iron levels as reflected by lower activity of the reporter gene. On the other hand, inhibition of Fpn-mediated iron efflux results in elevated cellular iron levels which is detected as increased reporter gene activity. Small molecular weight Fpn inhibitor compounds were tested for dose-dependent effects in this in vitro iron response assay as described below.
The HEK-293 cell line #354 was generated by stable integration of (i) a human Fpn-GFP fusion construct inserted in a derivative of the doxycycline-inducible pTRE-Tight-BI plasmid (Clontech, Cat. 631068) and (ii) a human ferritin promoter-BLA reporter gene into a derivative of the HEK-293 Tet-ON Advanced cell line (Clontech). To generate the ferritin-BLA reporter gene construct, a 1.4 kb fragment of the human ferritin H promoter was amplified by PCR from human genomic DNA (forward primer 5′-[…]-3′; reverse primer 5′-GGCGGCGACTAAGGAGAGG-3′) and inserted in front of the BLA gene present in the pcDNA™6.2/cGeneBLAzer™-DEST plasmid (Invitrogen, Cat. 12578-043) thereby replacing the original CMV promoter and placing the IRE that regulates translation of the ferritin gene ca. 170 bp upstream of the start codon of the reporter gene. #354 cells were harvested from ca. 80% confluent cultures, seeded at 1.8x10^5 cells/ml in DMEM/F12 GlutaMAX™ medium (Invitrogen, Cat. 31331-028) containing 10% FBS (Clontech, Cat. 631106), 1% Penicillin-Streptomycin, 200 µg/ml Hygromycin B (Invitrogen, Cat. 10687-010), Blasticidin 5 µg/ml, (Invitrogen, Cat. R210-01), 4 µg/ml doxycycline (Clontech, Cat. 631311), 50 µl per well of 384 well PDL-coated plates and grown at 37° C. with 5% CO2. After overnight incubation, 10 µl/well of dilution series of the test compounds were added in quadruplicates and plates were further incubated overnight at 37° C. with 5% CO2. Cells were washed 3 times with HBSS leaving 25 µl per well. BLA activity was detected by adding 5 µl/well of the GeneBlazer reagent CCF4-AM (Invitrogen, Cat. K1085) to the cells. After incubation of the plates in the dark at 18° C. for 60 min., blue and green fluorescence signals were measured in a Safire2 fluorescence plate reader (Tecan) with excitation at 410 nm and emissions at 458 nm (blue) and 522 nm (green). The ratio of blue/green fluorescence as a measure for BLA activity was calculated and EC50 values were determined with the calculated blue/green fluorescence ratios as described for the hepcidin internalization assay.

| IC50 | EC50 | SMILES |
| --- | --- | --- |
| 168 nM | 168 nM | O=C(NCc1ncccc1Br)c1coc(CCNCCc2nc3ccccc3[nH]2)n1 [Compound (II′)] |
| 39 nM | – | CC[C@H](C)[C@@H]1NC(=O)[C@@H](NC(=O)[C@@H](NC(=O)[C@@H]2CCCN2C(=O)[C@H](Cc2ccccc2)NC(=O)[C@H](Cc2c[nH]cn2)NC(=O)[C@@H](NC(=O)[C@@H](N)CC(=O)O)[C@@H](C)O)[C@@H](C)CC)CSSC[C@@H](C(=O)N[C@@H](CCCCN)C(=O)N[C@H](C(=O)O)[C@@H](C)O)NC(=O)[C@@H]2CSSC[C@@H]3NC(=O)[C@@H]4CSSC[C@H](NC(=O)[C@H](Cc5ccccc5)NC1=O)C(=O)N[C@@H](CSSC[C@H](NC(=O)[C@H](CCCCN)NC(=O)[C@H](CO)NC(=O)[C@H](CCCNC(=N)N)NC(=O)[C@H](Cc1c[nH]cn1)NC3=O)C(=O)NCC(=O)N[C@@H](CCSC)C(=O)N2)C(=O)NCC(=O)N4 [hepcidin, reference compound] |
| 156 nM | 156 nM | O=C(NCc1ncccc1F)c1coc(CCNCCc2nc3ccccc3[nH]2)n1 [Compound (II)] |

— US20230212159A1, “Process for the Production of Ferroportin Inhibitors” (Vifor (International) AG, priority 2020, published 2023)
